The subject of this data set is rodent carcinogenicity bioassays, tumor incidence. Put plainly: CCRIS carcinogenicity studies. The method in brief: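 Archive of carcinogenicity, mutagenicity, tumor promotion and tumor inhibition results drawn from journals, NCI reports and other sources, expert-reviewed; covers 1985-2011 and is no longer updated.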

This passage reports carcinogen call results from PubChem BioAssay AID1259411 (Chemical Carcinogenesis Research Information System (CCRIS), 2018).

Activity calls are given as the source filed them. How the calls were made is not given here.

Take `Nc1ncn[nH]1`: the carcinogen call (Species: HAMSTER, Strain/Sex: SYRIAN/FEMALE, Route: ORAL, Dose: 0, 1, 10, 100 PPM IN DIET (TOTAL DOSE: 0; 0.07; 0.6; 6.6 G/KG) FOR 822-856 D (STUDY DURATION: LIFETIME), Dose: 0, 1, 10, 100 PPM IN DIET (TOTAL DOSE: 0; 0.07; 0.6; 6.6 G/KG) FOR 822-856 D (STUDY DURATION: LIFETIME)) was “inactive; negative”; the carcinogen call (Species: HAMSTER, Strain/Sex: SYRIAN/MALE, Route: ORAL, Dose: 0, 1, 10, 100 PPM IN DIET (TOTAL DOSE: 0; 0.08; 0.8; 7.2 G/KG) FOR 885-979 D (STUDY DURATION: LIFETIME), Dose: 0, 1, 10, 100 PPM IN DIET (TOTAL DOSE: 0; 0.08; 0.8; 7.2 G/KG) FOR 885-979 D (STUDY DURATION: LIFETIME)) is “inactive; negative”; the carcinogen call (Species: MOUSE, Route: ORAL, Tumor Site: Type of Lesion: LIVER, THYROID GLAND) is “active; positive”; the carcinogen call (Species: MOUSE, Strain/Sex: NMRI/FEMALE, Route: ORAL, Dose: 0, 1, 10, 100 PPM IN DIET (TOTAL DOSE: 0; 0.17; 1.7; 18.2 G/KG) FOR 970-1027 D (STUDY DURATION: LIFETIME), Dose: 0, 1, 10, 100 PPM IN DIET (TOTAL DOSE: 0; 0.17; 1.7; 18.2 G/KG) FOR 970-1027 D (STUDY DURATION: LIFETIME)) is “inactive; negative”; the carcinogen call (Species: MOUSE, Strain/Sex: NMRI/MALE, Route: ORAL, Dose: 0, 1, 10, 100 PPM IN DIET (TOTAL DOSE: 0; 0.13; 1.3; 13.1 G/KG) FOR 1022-1028 D (STUDY DURATION: LIFETIME), Dose: 0, 1, 10, 100 PPM IN DIET (TOTAL DOSE: 0; 0.13; 1.3; 13.1 G/KG) FOR 1022-1028 D (STUDY DURATION: LIFETIME)) was “inactive; negative”; the carcinogen call (Species: RAT, Route: ORAL, Tumor Site: Type of Lesion: LIVER, THYROID GLAND) is “active; positive”. Further, the carcinogen call was “active; positive” (Species: RAT, Route: SUBCUTANEOUS, Tumor Site: Type of Lesion: INJECTION SITE, LIVER, THYROID GLAND, Tumor Site: Type of Lesion: INJECTION SITE, LIVER, THYROID GLAND); “active; positive” (Species: RAT, Strain/Sex: WISTAR/FEMALE, Route: ORAL, Dose: 0, 1, 10, 100 PPM IN DIET (TOTAL DOSE: 0; 0.08; 0.8; 7.9 G/KG) FOR 1140-1143 D (STUDY DURATION: LIFETIME), Dose: 0, 1, 10, 100 PPM IN DIET (TOTAL DOSE: 0; 0.08; 0.8; 7.9 G/KG) FOR 1140-1143 D (STUDY DURATION: LIFETIME), Tumor Site: Type of Lesion: THYROID GLAND: MALIGNANT TUMOR); “active; positive” (Species: RAT, Strain/Sex: WISTAR/MALE, Route: ORAL, Dose: 0, 1, 10, 100 PPM IN DIET (TOTAL DOSE: 0; 0.06; 0.6; 5.8 G/KG) FOR 1137-1143 D (STUDY DURATION: LIFETIME), Dose: 0, 1, 10, 100 PPM IN DIET (TOTAL DOSE: 0; 0.06; 0.6; 5.8 G/KG) FOR 1137-1143 D (STUDY DURATION: LIFETIME), Tumor Site: Type of Lesion: THYROID GLAND: MALIGNANT TUMOR).

On to `NC(=O)N(CCc1ccccc1)N=O`, for which the carcinogen call (Species: RAT, Strain/Sex: F344/FEMALE, Route: GAVAGE, Dose: 0, 20 MG/ML (TOTAL DOSE 0; 0.9 MMOL) IN 2 ML ETHYL ACETATE AND CORN OIL (1:2) 2/WK FOR 22 WK (STUDY DURATION: LIFETIME), Dose: 0, 20 MG/ML (TOTAL DOSE 0; 0.9 MMOL) IN 2 ML ETHYL ACETATE AND CORN OIL (1:2) 2/WK FOR 22 WK (STUDY DURATION: LIFETIME), Tumor Site: Type of Lesion: LIVER: TUMOR, FORESTOMACH: SQUAMOUS CELL CARCINOMA) is “active; positive”; the carcinogen call (Species: RAT, Strain/Sex: F344/FEMALE, Route: GAVAGE, Dose: 0, 20 MG/ML IN 0.2 ML ETHYL ACETATE AND CORN OIL 2/WK FOR 22 WK (STUDY DURATION: LIFESPAN), Tumor Site: Type of Lesion: FORESTOMACH: TUMOR, LIVER: TUMOR) was “active; positive”; the carcinogen call (Species: RAT, Strain/Sex: F344/MALE, Route: GAVAGE, Dose: 0, 20 MG/ML (TOTAL DOSE 0; 0.9 MMOL) IN 2 ML ETHYL ACETATE AND CORN OIL (1:2) 2/WK FOR 22 WK (STUDY DURATION: LIFETIME), Dose: 0, 20 MG/ML (TOTAL DOSE 0; 0.9 MMOL) IN 2 ML ETHYL ACETATE AND CORN OIL (1:2) 2/WK FOR 22 WK (STUDY DURATION: LIFETIME), Tumor Site: Type of Lesion: LIVER: TUMOR, FORESTOMACH: SQUAMOUS CELL CARCINOMA) is “active; positive”; the carcinogen call (Species: RAT, Strain/Sex: F344/MALE, Route: GAVAGE, Dose: 0, 20 MG/ML IN 0.2 ML ETHYL ACETATE AND CORN OIL 2/WK FOR 22 WK (STUDY DURATION: LIFESPAN), Tumor Site: Type of Lesion: FORESTOMACH: TUMOR, LIVER: TUMOR, DUODENUM: TUMOR, Tumor Site: Type of Lesion: FORESTOMACH: TUMOR, LIVER: TUMOR, DUODENUM: TUMOR) was “active; positive”.

Regarding `CCCCCCN(N=O)C(N)=O`, the carcinogen call is “active; positive” (Species: RAT, Strain/Sex: F344/FEMALE, Route: GAVAGE, Dose: 0, 17.5 MG/ML (TOTAL DOSE 0; 2 MMOL) IN 2 ML ETHYL ACETATE AND CORN OIL (1:2) 2/WK FOR 50 WK (STUDY DURATION: LIFETIME), Dose: 0, 17.5 MG/ML (TOTAL DOSE 0; 2 MMOL) IN 2 ML ETHYL ACETATE AND CORN OIL (1:2) 2/WK FOR 50 WK (STUDY DURATION: LIFETIME), Tumor Site: Type of Lesion: FORESTOMACH: SQUAMOUS CELL CARCINOMA, LUNG: TUMOR, MAMMARY GLAND: TUMOR, UTERUS: TUMOR, Tumor Site: Type of Lesion: FORESTOMACH: SQUAMOUS CELL CARCINOMA, LUNG: TUMOR, MAMMARY GLAND: TUMOR, UTERUS: TUMOR); “active; positive” (Species: RAT, Strain/Sex: F344/FEMALE, Route: GAVAGE, Dose: 0, 17.5 MG/ML IN 0.2 ML ETHYL ACETATE AND CORN OIL 2/WK FOR 50 WK (STUDY DURATION: LIFESPAN), Tumor Site: Type of Lesion: FORESTOMACH: TUMOR, LUNG: TUMOR, MAMMARY GLAND: TUMOR, UTERUS: TUMOR, Tumor Site: Type of Lesion: FORESTOMACH: TUMOR, LUNG: TUMOR, MAMMARY GLAND: TUMOR, UTERUS: TUMOR); “active; positive” (Species: RAT, Strain/Sex: F344/MALE, Route: GAVAGE, Dose: 0, 17.5 MG/ML (TOTAL DOSE 0; 2 MMOL) IN 2 ML ETHYL ACETATE AND CORN OIL (1:2) 2/WK FOR 50 WK (STUDY DURATION: LIFETIME), Dose: 0, 17.5 MG/ML (TOTAL DOSE 0; 2 MMOL) IN 2 ML ETHYL ACETATE AND CORN OIL (1:2) 2/WK FOR 50 WK (STUDY DURATION: LIFETIME), Tumor Site: Type of Lesion: FORESTOMACH: SQUAMOUS CELL CARCINOMA, LUNG: TUMOR, BODY CAVITY: MESOTHELIOMA, Tumor Site: Type of Lesion: FORESTOMACH: SQUAMOUS CELL CARCINOMA, LUNG: TUMOR, BODY CAVITY: MESOTHELIOMA); “active; positive” (Species: RAT, Strain/Sex: F344/MALE, Route: GAVAGE, Dose: 0, 17.5 MG/ML IN 0.2 ML ETHYL ACETATE AND CORN OIL 2/WK FOR 50 WK (STUDY DURATION: LIFESPAN), Tumor Site: Type of Lesion: FORESTOMACH: TUMOR, LUNG: TUMOR, PERITONEUM: MESOTHELIOMA, SKIN: TUMOR, Tumor Site: Type of Lesion: FORESTOMACH: TUMOR, LUNG: TUMOR, PERITONEUM: MESOTHELIOMA, SKIN: TUMOR).

As for `c1ccc2c(c1)ccc1cc3ccc4ccccc4c3nc12`, the carcinogen call is “active; positive” (Species: MOUSE, Strain/Sex: CD-1/FEMALE, Route: INTRAPERITONEAL, Dose: 0, 175 NMOL (TOTAL DOSE) ADMINISTERED AS 1/7 OF DOSE WITHIN 24 HR AFTER BIRTH, 2/7 OF DOSE AT 8 D OLD, 4/7 OF DOSE AT 15, Tumor Site: Type of Lesion: LUNG: TUMOR) and “active; positive” (Species: MOUSE, Strain/Sex: CD-1/MALE, Route: INTRAPERITONEAL, Dose: 0, 175 NMOL (TOTAL DOSE) ADMINISTERED AS 1/7 OF DOSE WITHIN 24 HR AFTER BIRTH, 2/7 OF DOSE AT 8 D OLD, 4/7 OF DOSE AT 15, Tumor Site: Type of Lesion: LIVER: TUMOR, LUNG: TUMOR).

As for `O=S(=O)(O)c1ccc(N=Nc2c(O)ccc3ccccc23)cc1`, the carcinogen call (Species: MOUSE, Strain/Sex: SWISS-WEBSTER/FEMALE, Route: DERMAL, Dose: 0, 1% IN 0.1 ML DISTILLED WATER 1/WK FOR 18 MO (STUDY DURATION: 18 MO)) was “inactive; negative” and the carcinogen call (Species: MOUSE, Strain/Sex: SWISS-WEBSTER/MALE, Route: DERMAL, Dose: 0, 1% IN 0.1 ML DISTILLED WATER 1/WK FOR 18 MO (STUDY DURATION: 18 MO)) is “inactive; negative”.
